In PubChem BioAssay AID179 (DTP/NCI, 2004):
Activity calls are given as the source filed them.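 Rule for the calls: active = compounds giving half or more protection of infected cells from virus-caused growth loss, again on retest; inactive = the rest.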 Where a SMILES comes first, the peptide text is derived from it. The star is where a group is joined. Boc = CC(C)(C)OC(=O)*

System: CEM cells HIV-1 protection, formazan growth assay
Test: NCI AIDS Antiviral Assay
Conditions: for IC50: measured here: growth of uninfected CEM cells
Summary of the method: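 Protection of CEM cells against HIV-1 was scored from cell growth (soluble formazan) across five concentrations, with parallel uninfected cells. Lack of protection may reflect toxicity.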

SMILES	EC50 [µM]	IC50 [µM]	outcome
Cc1ccc(S(=O)(=O)OC(C=O)C(O)C(O)COC(c2ccccc2)(c2ccccc2)c2ccccc2)cc1 (stereo unspecified)	> 24.5	> 24.5	
CCP(=O)(CC)C(Cl)(Cl)C(O)C(Cl)(Cl)Cl (stereo unspecified)	> 200	> 200	
CC1=CC(=O)/C(=C\N2C(=O)CC(=O)NC2=S)C(=O)O1	> 100	> 100	
CCCc1cc(=O)oc2c3c(cc(OC)c12)O[C@H](C)[C@@H](C)[C@@H]3O	> 200		
CCOC(=O)Nc1sc2c(c1C#N)CCCC2	41.7	105	
NNc1c(Cl)c(=O)n(-c2ccccc2)[nH]c1=O	> 200	> 200	
O=C(/C=C/c1cccc(Br)c1)c1cccs1			inactive
CC(=O)OCC1OC(n2c(Br)nc3c2c(=O)n(C)c(=O)n3C)C(OC(C)=O)C1OC(C)=O (stereo unspecified)	> 200	69.2	
CC1(C)OCC(C2OC(OC(=O)c3ccc([N+](=O)[O-])cc3)C3OC(C)(C)OC23)O1 (stereo unspecified)			inactive
O=C1C2C=CC(C3C=CC2N(Cc2ccccc2)C3=O)N1Cc1ccccc1			inactive
CCCCNC(=S)SSSC(=S)NCCCC	> 200	2.75	
O=C(O)/C(Cl)=C(\Cl)C(=O)NC1C2CC3CC(C2)CC1C3 (stereo unspecified)			inactive
CCOC(=O)c1c[nH]c2ccc3c(c2c1=O)S(=O)(=O)CC3 (tested in a mixture with another compound)			inactive
COc1ccc(CSc2nc3ccccc3nc2-c2cccs2)cc1	> 3.98	> 3.98	
CN1CCC2(CC1)C(=O)N(Cc1ccccc1)C(=O)C2c1ccccc1 (stereo unspecified)	> 372	214	
C[C@@]12C[C@@H](c3ccccc3O1)N1CCCCSC1=N2	> 200	> 200	
CCNc1nnc(-c2nsc3ccccc23)s1	> 20	> 20	
COc1cccc2c1C(=O)OC2c1cccc2ccccc12 (stereo unspecified)			inactive
CC(C)C(=O)/C=C/c1c(Cl)cccc1Cl			inactive
CCOC(=O)/C(C#N)=c1/s/c(=C(\O)N/N=C/c2ccc(OC)cc2)c(=N)n1-c1ccccc1	> 4.27	> 4.27	
CCCCCCCCCCCCCCCCCC[N+](C)(C)Cc1ccc(C[N+](C)(C)CCCCCCCCCCCCCCCCCC)cc1			inactive
CCOC(=O)/C=C(/N=P(c1ccccc1)(c1ccccc1)c1ccccc1)C(F)(F)F	> 200	13.8	

SMILES	EC50 [µM]	IC50 [µM]	outcome
CC1(C)C(=O)C(C)(C)C12SSC1(S2)C(C)(C)C(=O)C1(C)C	> 200	81.3	
COc1cc2c(cc1OC)C1C3CCCCC3CCN1CC2 (stereo unspecified)	> 200	138	
O=C(NNc1ccccc1)/C(=C/c1ccc2c(c1)OCO2)NC(=O)c1ccccc1	> 12.9	> 12.9	
CCN(CC)c1c(C)nnc2c3c(-c4ccccc4)c(-c4ccccc4)nnc3nn12	> 200	> 200	
COC(=O)c1ccccc1C#CCCCOS(C)(=O)=O	> 200	> 200	
CCOC(=O)NC(=O)c1cn(CCCOC(=O)NCCCCCCNC(=O)OCCCn2cc(C(=O)NC(=O)OCC)c(=O)[nH]c2=O)c(=O)[nH]c1=O			inactive
O=C(C=P(c1ccccc1)(c1ccccc1)c1ccccc1)C1(C(=O)C=P(c2ccccc2)(c2ccccc2)c2ccccc2)CC1	> 200	9.55	
CC(=O)Nc1ccc(S(=O)(=O)N/N=C/CN2C(=O)c3ccccc3C2=O)cc1	26.9	89.1	
C/C(=N\NC(N)=O)c1ccc(Cl)cc1	> 123	> 123	
COc1cccc(/C=C2\N=C(Cl)OC2=O)c1O	> 20.4	> 20.4	
CCSc1c2ccccc2c(-c2nc(F)nc(F)n2)n1CCc1ccccc1	> 13.2	> 13.2	
Cc1ccc(S(=O)(=O)N2CCCSCCSCCCN(S(=O)(=O)c3ccc(C)cc3)CC2)cc1	> 13.2	> 13.2	
NCCCCC(NC(=O)C(N)Cc1ccc(O)cn1)C(=O)O (stereo unspecified)	> 200	> 200	
CCN(CC)CCN(C)c1ccc(/C=C/c2ccnc3ccccc23)cc1			inactive
CC1=NC(=O)CC2=C1C(C)N(Cc1ccccc1)C2=O (stereo unspecified)	> 355	> 355	
COc1ccc2nc3c([N+](=O)[O-])ccc4c3c(c2c1)N(CCCN(C)C)C(=S)N4CCCN(C)C	> 2	0.537	
[Cu+2].[O-]/C(=N\N=C\c1ccccn1)c1ccccc1O.[O-]/C(=N\N=C\c1ccccn1)c1ccccc1O	> 200	10.2	
COC(=O)C1C(C(=O)OC)C2N(c3ccccc3)C=NN2C1C(=O)c1ccccc1 (stereo unspecified)	182	> 200	
CC(CN(C)C)Sc1nnc(SC(C)CN(C)C)s1 (stereo unspecified)			inactive
Cc1[nH]n(-c2ccccc2)c(=O)c1/C=N\C(N)=S	> 200	182	
O=C(NCCCCCCCCNC(=O)c1cc(O)c(O)c(O)c1)c1cc(O)c(O)c(O)c1	> 100	13.8	
c1ccc(COC2C3COC(O3)C(OCc3ccccc3)C2OCc2ccccc2)cc1 (stereo unspecified)	> 200	15.1	

SMILES	EC50 [µM]	IC50 [µM]	outcome
O=C(O)c1c2ccccc2nc2[nH]c(=O)[nH]c(=O)c12		141	inactive
COC(=O)[C@H](Cc1ccccc1)NP(=O)(OC)OCC1OC(n2cc(C)c(=O)[nH]c2=O)CC1N=[N+]=[N-] (stereo partly specified)	83.2	> 200	
COC1/C=C\OC2(C)Oc3c(C)c(O)c4c(c3C2=O)C(=O)C=C(NC(=O)/C(C)=C\C=C/C(C)C(O)C(C)C(O)C(C)C(OC(C)=O)C1C)C4=O (stereo unspecified)	> 200	2.69	
C#C[C@H]1CCCCCC1O (stereo partly specified)	> 1820	1230	
CC(C)(C)[Si](C)(C)OC[C@H]1O[C@@H](n2ccc(=O)[nH]c2=O)C[C@]12CCN(O)CO2	> 200	105	
COC(=O)C(C(=O)C(=O)Nc1ccc(N)cc1[N+](=O)[O-])c1nc2ccc(Cl)cc2[nH]c1=O (stereo unspecified)	> 40.7	30.9	
O=C1c2c(O)cc(O)cc2C(C2OC(CO)C(O)C(O)C2O)c2cc(CO)cc(O)c21 (stereo unspecified)	> 200	> 200	
CCC1(Br)OC1=O (stereo unspecified)	> 200	107	
O=[N+]([O-])c1cc(Cl)ccc1OCc1ccccc1			inactive
COC(=O)c1[nH]c(=O)c(C#N)c(C(=O)OC)c1C(=O)/C=C/c1ccccc1	> 51.3	> 51.3	
CCOC(=O)N1CCc2cc(OC)c(OC)c3c2C1CC3=O (stereo unspecified)			inactive
Cc1cc(Cl)ccc1N=C1NC(=O)C(CC(=O)Nc2ccc([N+](=O)[O-])cc2[N+](=O)[O-])S1 (stereo unspecified)	> 77.6	67.6	
C=CCOc1ccc(/C(N=Nc2ccc(Cl)cc2)=N/NC(=O)c2ccccc2)cc1OC	> 200	87.1	
CC(NC(=O)C(N)CC(=O)O)NC(=O)N1CCCC1 (stereo unspecified)	> 200	> 200	
COC(=O)[C@H](COC(=O)/C=C/c1ccc(OC(C)=O)c(OC(C)=O)c1)NC(=O)/C=C/c1ccc(OC(C)=O)c(OC(C)=O)c1	> 100	17.8	
CCOC(=O)CC(=O)NC1CC2CCC1(C)C2(C)C (stereo unspecified)	> 200	> 200	
O=C(c1ccccc1)C(O)(c1ccccc1)C(c1ccccc1)c1ccccc1 (stereo unspecified)	> 26.3	> 26.3	
COC(=O)C(=O)C(C(=O)C(=O)Nc1cc(C)ccc1C)c1nc2ccc(C(=O)c3ccccc3)cc2[nH]c1=O (stereo unspecified)			inactive
OCCN(CCO)c1cccc(N(CCO)CCO)c1			inactive
COc1ccc(N2C(=O)c3c(c4[nH]c5ccc(OC)cc5c4c4ccc(C(C)(C)C)cc34)C2=O)cc1	> 11	> 11	
FC(F)(F)C[P+](c1ccccc1)(c1ccccc1)c1ccccc1	> 200	46.8	
C#CCN1C(=O)c2ccccc2S1(=O)=O.[C-]#[O+].[C-]#[O+].[C-]#[O+].[C-]#[O+].[C-]#[O+].[C-]#[O+].[Co].[Co]	> 200	7.08	

SMILES	EC50 [µM]	IC50 [µM]	outcome
CC(=O)C1=C(C)Cn2c(=O)c3ccccc3c(=O)n2C1	> 95.5	> 95.5	
OCc1ccc2c(c1)CC1(C2)Cc2cc3c(cc2C1O)CCC3 (stereo unspecified)	> 200	1.82	
Cc1ccc(S(=O)(=O)OCCOS(=O)(=O)c2ccc(C)cc2)cc1	> 36.3	> 36.3	
CCN(CCN(CC)C(=O)Nc1ccccc1)C(=O)Nc1ccccc1	> 200	> 200	
COc1cccc2c(=O)c3c(n(C)c12)OC(C(C)C)C3 (stereo unspecified)	> 339	126	
O=C(Nc1ccn(C2CC(O)C(COC(c3ccccc3)(c3ccccc3)c3ccccc3)O2)c(=O)n1)c1ccccc1 (stereo unspecified)	> 200	7.41	
O=C(O)/C(=C\c1ccccc1Cl)S(=O)(=O)c1ccccc1			inactive
O=C1C(=Cc2ccc([N+](=O)[O-])o2)C(=O)N(CCc2ccccc2)S(=O)(=O)N1CCc1ccccc1	> 5.25	> 5.25	
c1ccc2c(c1)n1c(N3CCOCC3)[n+]3ccccc3c1c1c3cccc[n+]3c(N3CCOCC3)n21	123	145	
COC(=O)C(C)NC(=O)C(CCSC)NC(=O)C(Cc1ccccc1)NC(=O)OC(C)(C)C (stereo not drawn) (Boc-Phe-Met-Ala-OMe; configuration not given here)	> 200		
O=C(O)C1=NN(c2ccc(S(=O)(=O)O)cc2)C(=O)C1N=Nc1ccc(S(=O)(=O)O)cc1 (stereo unspecified)			inactive
NC1c2ccccc2Nc2ccccc21	> 182	1.29	
CC1S/C(=N\N=C\c2ccc(Cl)cc2)N=C1c1c(O)c2ccccc2oc1=O (stereo unspecified)	> 200	36.3	
CCOC(=O)C1OC1C1CCCc2ccccc21 (stereo unspecified)	> 200	> 100	
CN(C)c1ccc(/C=C(\C#N)C(=O)c2ccccc2)cc1Br	> 14.8	> 14.8	
CCN(CC)c1ccc2cc(-c3nc4ccccc4c(=O)[nH]3)c(=N)oc2c1	> 100	> 100	
Cc1ccc(S(=O)(=O)N2/C(=C/c3ccccc3)C(=O)c3ccccc3-c3ccccc32)cc1	> 11.5	> 11.5	
O=C(Nc1nc2ccccc2n1Cc1ccccc1)NC12CC3CC(CC(C3)C1)C2	> 200	> 200	
CC(=O)c1ccc(N=NN2CCCC2)cc1	> 200	89.1	
